In ChEMBL document CHEMBL3991601, “The target landscape of clinical kinase drugs” (Science, 2017) one finds Kd data, which are given here for 7 molecules.

Test [1] has as its target Cyclin-dependent kinase 17 (Homo sapiens, UniProt Q00537).
Test [2] has as its target STE20-like serine/threonine-protein kinase (Homo sapiens, UniProt Q9H2G2).
A further test addresses Adenosine kinase (Homo sapiens, UniProt P55263).
For test [3], the target named is Serine/threonine-protein kinase 26 (Homo sapiens, UniProt Q9P289).
In test [4] the target is T1, Dynamin-like GTPase OPA1, mitochondrial (Homo sapiens, UniProt O60313).
T1 sequence (O60313 whole entry): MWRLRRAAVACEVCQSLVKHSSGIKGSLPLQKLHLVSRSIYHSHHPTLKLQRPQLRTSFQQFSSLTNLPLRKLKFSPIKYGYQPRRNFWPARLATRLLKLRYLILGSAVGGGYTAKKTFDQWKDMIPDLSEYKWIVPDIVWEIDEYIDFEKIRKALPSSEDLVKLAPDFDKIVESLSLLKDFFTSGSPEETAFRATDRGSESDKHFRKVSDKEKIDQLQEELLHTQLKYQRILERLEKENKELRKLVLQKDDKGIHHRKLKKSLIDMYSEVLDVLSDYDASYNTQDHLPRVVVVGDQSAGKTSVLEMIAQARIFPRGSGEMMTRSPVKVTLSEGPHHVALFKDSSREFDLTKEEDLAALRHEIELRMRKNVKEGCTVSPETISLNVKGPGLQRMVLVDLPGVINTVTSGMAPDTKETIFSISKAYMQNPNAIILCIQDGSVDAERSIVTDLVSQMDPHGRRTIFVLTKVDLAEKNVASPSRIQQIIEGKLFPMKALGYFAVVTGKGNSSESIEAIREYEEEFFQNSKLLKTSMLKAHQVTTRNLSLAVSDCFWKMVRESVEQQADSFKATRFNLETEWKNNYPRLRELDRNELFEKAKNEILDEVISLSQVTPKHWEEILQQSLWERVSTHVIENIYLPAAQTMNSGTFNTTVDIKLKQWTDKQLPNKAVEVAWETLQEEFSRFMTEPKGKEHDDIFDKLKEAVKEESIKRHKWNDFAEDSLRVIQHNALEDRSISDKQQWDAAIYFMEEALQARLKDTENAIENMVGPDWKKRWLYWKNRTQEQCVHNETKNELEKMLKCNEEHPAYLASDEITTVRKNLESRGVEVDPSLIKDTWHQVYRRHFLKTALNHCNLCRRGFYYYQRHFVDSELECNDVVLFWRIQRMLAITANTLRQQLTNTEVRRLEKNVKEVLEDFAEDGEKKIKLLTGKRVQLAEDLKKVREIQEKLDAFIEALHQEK

Test [5] deals with S-adenosylmethionine synthase isoform type-2 (Homo sapiens, UniProt P31153).
The next test has as its target T2, Scaffold protein ILK (Homo sapiens, UniProt Q13418).
T2 sequence (Q13418 whole entry): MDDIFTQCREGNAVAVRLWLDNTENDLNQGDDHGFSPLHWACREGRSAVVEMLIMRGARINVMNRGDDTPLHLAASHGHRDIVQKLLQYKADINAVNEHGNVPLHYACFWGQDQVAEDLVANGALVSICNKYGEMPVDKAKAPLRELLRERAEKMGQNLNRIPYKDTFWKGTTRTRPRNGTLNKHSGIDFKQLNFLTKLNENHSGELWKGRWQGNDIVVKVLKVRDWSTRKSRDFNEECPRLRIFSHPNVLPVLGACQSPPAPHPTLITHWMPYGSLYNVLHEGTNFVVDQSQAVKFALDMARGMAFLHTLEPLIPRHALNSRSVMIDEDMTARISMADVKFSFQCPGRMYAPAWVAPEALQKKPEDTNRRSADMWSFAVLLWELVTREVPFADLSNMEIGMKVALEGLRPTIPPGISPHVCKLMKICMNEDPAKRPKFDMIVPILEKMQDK

In test [6] the target is Mitotic checkpoint serine/threonine-protein kinase BUB1 (Homo sapiens, UniProt O43683).
In test [7] the target is Dual specificity protein kinase CLK1 (Homo sapiens, UniProt P49759).
The target of test [8] is Rho-associated protein kinase 1 (Homo sapiens, UniProt Q13464).
Test [9] addresses 5'-AMP-activated protein kinase catalytic subunit alpha-1 (Homo sapiens, UniProt Q13131).
For test [10], the target named is Mitogen-activated protein kinase kinase kinase kinase 4 (Homo sapiens, UniProt O95819).
The target of test [11] is Ribosomal protein S6 kinase alpha-6 (Homo sapiens, UniProt Q9UK32).
Test [12] concerns the target Non-receptor tyrosine-protein kinase TYK2 (Homo sapiens, UniProt P29597).
Test [13] concerns the target Proto-oncogene tyrosine-protein kinase Src (Homo sapiens, UniProt P12931).
Test [14] has as its target T3, Non-receptor tyrosine-protein kinase TNK1 (Homo sapiens, UniProt Q13470).
T3 sequence (Q13470 whole entry): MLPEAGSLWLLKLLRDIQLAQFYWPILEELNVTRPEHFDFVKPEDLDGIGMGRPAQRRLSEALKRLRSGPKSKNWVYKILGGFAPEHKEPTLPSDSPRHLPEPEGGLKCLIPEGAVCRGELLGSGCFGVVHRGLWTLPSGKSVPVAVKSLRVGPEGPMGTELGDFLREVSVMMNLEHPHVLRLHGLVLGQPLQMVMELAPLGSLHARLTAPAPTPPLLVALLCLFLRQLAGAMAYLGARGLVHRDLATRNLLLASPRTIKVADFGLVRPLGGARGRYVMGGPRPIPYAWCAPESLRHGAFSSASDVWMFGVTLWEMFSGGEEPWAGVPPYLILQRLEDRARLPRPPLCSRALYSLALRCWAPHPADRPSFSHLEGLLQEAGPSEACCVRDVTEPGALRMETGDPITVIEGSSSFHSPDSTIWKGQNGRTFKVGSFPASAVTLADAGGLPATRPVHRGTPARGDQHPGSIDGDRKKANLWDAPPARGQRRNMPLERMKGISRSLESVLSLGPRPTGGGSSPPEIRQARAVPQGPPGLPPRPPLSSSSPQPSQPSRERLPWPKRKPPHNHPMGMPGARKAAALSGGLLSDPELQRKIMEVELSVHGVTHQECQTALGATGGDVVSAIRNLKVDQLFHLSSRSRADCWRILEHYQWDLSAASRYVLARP

Test [15] deals with Maternal embryonic leucine zipper kinase (Homo sapiens, UniProt Q14680).
Test [16] deals with Hepatocyte growth factor receptor (Homo sapiens, UniProt P08581).

Active and inactive are the calls of the source. Cut-off read from the data, not from the text of the source, for most assays here: actives have a measured Kd and inactives only a lower limit.
Note: in the data inactive means no Kd found up to 30 µM.

Serine/threonine-protein kinase 26, sequence (Q9P289 whole entry): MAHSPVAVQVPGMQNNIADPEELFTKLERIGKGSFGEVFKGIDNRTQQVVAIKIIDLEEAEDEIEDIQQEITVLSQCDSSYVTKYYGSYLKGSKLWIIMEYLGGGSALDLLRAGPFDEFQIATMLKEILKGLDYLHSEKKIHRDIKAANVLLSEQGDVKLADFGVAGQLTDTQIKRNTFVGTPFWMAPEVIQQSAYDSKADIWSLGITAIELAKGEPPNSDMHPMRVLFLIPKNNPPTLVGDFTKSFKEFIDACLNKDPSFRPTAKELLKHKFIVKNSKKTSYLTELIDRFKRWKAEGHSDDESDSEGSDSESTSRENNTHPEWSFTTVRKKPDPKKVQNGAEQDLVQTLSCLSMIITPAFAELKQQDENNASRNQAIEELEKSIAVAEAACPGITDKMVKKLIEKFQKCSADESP
Cyclin-dependent kinase 17, sequence (Q00537 whole entry): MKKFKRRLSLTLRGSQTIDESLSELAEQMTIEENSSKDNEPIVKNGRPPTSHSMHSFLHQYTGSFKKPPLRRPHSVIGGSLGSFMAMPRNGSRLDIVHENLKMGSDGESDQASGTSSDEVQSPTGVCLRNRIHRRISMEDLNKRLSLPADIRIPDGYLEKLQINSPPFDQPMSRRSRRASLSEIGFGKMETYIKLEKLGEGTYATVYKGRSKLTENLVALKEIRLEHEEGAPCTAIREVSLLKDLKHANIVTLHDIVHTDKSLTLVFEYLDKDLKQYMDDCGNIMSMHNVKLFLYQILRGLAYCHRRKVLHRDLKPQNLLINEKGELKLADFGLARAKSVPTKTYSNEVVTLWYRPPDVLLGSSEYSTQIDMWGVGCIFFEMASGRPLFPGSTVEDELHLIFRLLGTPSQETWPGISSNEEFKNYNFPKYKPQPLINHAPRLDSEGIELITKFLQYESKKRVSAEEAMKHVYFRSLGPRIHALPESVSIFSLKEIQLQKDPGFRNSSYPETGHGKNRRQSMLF
Rho-associated protein kinase 1, sequence (Q13464 whole entry): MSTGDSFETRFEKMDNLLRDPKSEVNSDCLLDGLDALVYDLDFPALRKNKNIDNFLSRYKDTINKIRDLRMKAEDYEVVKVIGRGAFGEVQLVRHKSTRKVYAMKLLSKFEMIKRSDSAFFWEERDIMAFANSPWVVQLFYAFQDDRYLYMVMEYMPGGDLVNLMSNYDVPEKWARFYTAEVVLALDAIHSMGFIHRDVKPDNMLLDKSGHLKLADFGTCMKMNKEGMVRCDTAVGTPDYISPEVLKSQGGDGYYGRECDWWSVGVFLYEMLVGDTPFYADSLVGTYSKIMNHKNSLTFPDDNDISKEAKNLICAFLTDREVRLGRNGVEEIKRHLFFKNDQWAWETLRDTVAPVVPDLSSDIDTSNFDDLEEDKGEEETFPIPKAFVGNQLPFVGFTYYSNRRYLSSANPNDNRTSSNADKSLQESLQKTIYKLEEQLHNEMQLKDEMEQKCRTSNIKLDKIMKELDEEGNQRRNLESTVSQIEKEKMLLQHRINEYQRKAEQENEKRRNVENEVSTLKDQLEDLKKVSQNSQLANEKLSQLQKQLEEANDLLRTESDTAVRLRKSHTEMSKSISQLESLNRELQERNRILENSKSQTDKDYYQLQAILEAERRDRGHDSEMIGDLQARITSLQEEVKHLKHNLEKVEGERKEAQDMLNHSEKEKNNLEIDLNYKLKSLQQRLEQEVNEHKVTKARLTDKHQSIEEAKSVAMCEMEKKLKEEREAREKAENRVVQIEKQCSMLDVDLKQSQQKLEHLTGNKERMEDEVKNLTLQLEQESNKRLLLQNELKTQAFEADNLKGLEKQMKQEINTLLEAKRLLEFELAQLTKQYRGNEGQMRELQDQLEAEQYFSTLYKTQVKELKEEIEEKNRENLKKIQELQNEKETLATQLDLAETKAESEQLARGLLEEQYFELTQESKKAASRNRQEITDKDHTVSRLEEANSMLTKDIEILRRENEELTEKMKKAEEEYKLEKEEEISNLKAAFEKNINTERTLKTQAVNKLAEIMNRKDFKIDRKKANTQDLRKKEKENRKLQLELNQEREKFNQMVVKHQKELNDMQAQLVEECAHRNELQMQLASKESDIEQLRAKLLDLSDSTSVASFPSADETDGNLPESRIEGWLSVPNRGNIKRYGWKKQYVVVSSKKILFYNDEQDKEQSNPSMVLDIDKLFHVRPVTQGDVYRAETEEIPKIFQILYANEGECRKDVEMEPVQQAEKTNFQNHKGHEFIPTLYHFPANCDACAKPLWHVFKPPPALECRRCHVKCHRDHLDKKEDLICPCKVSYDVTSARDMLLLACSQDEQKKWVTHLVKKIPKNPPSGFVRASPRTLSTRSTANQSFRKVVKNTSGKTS
Proto-oncogene tyrosine-protein kinase Src, sequence (P12931 2-536 limits assumed): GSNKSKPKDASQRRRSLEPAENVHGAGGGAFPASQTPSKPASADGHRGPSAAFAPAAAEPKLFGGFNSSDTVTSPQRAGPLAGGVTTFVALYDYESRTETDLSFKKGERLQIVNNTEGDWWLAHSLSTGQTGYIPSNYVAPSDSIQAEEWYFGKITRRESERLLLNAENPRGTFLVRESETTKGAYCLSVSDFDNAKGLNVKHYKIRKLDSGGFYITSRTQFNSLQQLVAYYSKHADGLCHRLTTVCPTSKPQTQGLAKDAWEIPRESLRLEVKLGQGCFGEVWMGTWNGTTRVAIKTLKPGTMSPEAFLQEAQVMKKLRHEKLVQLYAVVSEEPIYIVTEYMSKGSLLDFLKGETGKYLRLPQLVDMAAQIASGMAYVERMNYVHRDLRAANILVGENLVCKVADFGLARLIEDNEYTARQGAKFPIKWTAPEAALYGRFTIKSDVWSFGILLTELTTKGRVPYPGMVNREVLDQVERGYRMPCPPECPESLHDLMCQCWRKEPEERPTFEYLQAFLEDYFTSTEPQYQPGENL
Ribosomal protein S6 kinase alpha-6, sequence (Q9UK32 whole entry): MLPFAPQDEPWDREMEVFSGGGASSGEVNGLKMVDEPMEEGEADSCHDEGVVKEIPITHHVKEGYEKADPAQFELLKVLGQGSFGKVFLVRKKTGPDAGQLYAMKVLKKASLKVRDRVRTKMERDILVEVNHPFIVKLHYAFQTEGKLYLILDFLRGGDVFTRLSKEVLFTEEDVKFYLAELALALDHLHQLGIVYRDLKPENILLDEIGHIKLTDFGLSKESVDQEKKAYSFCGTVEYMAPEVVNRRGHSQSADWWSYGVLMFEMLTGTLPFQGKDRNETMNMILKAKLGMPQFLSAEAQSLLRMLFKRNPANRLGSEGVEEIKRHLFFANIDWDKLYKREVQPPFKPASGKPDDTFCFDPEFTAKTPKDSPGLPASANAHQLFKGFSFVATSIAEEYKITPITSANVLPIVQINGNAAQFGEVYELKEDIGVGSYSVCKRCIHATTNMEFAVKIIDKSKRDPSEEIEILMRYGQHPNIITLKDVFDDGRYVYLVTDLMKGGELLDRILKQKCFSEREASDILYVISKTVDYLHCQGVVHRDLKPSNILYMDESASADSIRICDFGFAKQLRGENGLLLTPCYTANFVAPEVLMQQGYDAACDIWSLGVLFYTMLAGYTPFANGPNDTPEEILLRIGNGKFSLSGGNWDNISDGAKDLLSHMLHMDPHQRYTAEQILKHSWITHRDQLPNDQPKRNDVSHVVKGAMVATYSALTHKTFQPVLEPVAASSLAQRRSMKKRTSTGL
Non-receptor tyrosine-protein kinase TYK2, sequence (P29597 whole entry): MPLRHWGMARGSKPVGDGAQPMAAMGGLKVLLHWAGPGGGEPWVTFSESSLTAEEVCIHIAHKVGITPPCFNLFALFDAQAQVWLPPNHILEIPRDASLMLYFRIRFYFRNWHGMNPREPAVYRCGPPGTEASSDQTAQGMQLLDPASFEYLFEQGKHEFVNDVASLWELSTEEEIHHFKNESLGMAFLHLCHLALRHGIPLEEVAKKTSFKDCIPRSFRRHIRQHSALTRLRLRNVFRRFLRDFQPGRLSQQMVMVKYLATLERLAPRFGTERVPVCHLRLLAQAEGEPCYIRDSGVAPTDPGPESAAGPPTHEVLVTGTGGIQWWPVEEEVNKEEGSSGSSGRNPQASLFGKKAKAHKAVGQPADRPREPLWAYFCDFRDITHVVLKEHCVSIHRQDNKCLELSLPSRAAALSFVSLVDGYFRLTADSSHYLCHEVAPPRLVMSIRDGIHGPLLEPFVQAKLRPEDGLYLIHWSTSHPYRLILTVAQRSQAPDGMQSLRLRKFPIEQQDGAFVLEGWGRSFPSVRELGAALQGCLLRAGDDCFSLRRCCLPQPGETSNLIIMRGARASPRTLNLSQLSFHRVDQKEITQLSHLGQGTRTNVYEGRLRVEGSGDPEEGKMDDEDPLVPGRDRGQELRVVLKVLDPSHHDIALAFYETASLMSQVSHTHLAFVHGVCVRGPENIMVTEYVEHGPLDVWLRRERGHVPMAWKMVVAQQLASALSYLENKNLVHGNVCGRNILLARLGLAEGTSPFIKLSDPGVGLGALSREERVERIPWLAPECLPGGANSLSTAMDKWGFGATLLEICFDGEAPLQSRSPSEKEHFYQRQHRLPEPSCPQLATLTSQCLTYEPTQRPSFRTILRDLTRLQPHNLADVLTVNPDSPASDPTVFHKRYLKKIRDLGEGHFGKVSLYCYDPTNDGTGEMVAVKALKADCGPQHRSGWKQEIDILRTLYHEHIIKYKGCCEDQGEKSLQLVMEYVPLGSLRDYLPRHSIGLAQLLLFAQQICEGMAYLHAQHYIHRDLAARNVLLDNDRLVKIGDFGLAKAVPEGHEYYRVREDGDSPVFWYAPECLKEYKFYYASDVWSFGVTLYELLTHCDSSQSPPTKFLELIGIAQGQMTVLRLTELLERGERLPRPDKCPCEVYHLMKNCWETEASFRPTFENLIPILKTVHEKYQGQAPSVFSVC

Take `O=C(Nc1c[nH]nc1-c1nc2cc(CN3CCOCC3)ccc2[nH]1)NC1CC1` [AT-9283]: the Kd is 1.15 µM (active) in [1]; 0.402 µM (active) in test [2]; > 30 µM (inactive) on Adenosine kinase; > 30 µM (inactive) in test [3]; > 30 µM (inactive) in test [4]; > 30 µM (inactive) in test [5]. For the same molecule, the Kd on Scaffold protein ILK was > 30 µM (inactive); in [6] it was 0.094 µM (active); in [7], 2.04 µM (active); in [8], > 30 µM (inactive); in test [9] it was 0.05 µM (active).

With `Cc1cc(C(=O)NOCCO)c(Nc2ccc(I)cc2F)n(C)c1=O` [AZD-8330], the Kd (in test [10]; in test [1]; in test [2]; at Adenosine kinase; in test [3]; in [4]) was > 30 µM (inactive) throughout. Besides, the Kd (on Scaffold protein ILK; in test [11]; in test [12]; in [7]; in test [8]; in test [13]) was > 30 µM (inactive) throughout. Also, the Kd in test [14], in test [15] and in test [9] was > 30 µM (inactive) throughout.

In the case of `CNC(=O)c1nn(C)c2c1C(C)(C)Cc1cnc(Nc3ccc(N4CCN(C)CC4)cc3)nc1-2` [MILCICLIB], the Kd (in test [10]; in test [2]; on Adenosine kinase; in test [3]; in test [4]; in [5]) was > 30 µM (inactive) each time. Also, the Kd on Scaffold protein ILK was > 30 µM (inactive); in [11], > 30 µM (inactive); in test [12] it was > 30 µM (inactive); in [7] it was 0.008 µM (active); in test [8], > 30 µM (inactive); in [13], 5.31 µM (active). Moreover, the Kd is 5.68 µM (active) in test [14] and > 30 µM (inactive) in test [9].

For the molecule `COc1ncc(-c2ccc3nccc(-c4ccnnc4)c3c2)cc1NS(=O)(=O)c1ccc(F)cc1F` [OMIPALISIB], the Kd (in test [10]; in test [1]; in test [2]; on Adenosine kinase; in test [3]; in test [4]) was > 30 µM (inactive) each time. The Kd (in [5]; at Scaffold protein ILK; in test [11]; in [12]; in test [7]; in test [8]) was > 30 µM (inactive) in each case. Besides, the Kd in [13], in test [14], in test [15] and in [9] was > 30 µM (inactive) in each case.

As to `CCCCCCCCCCCCCCCCCCOP(=O)([O-])OC1CC[N+](C)(C)CC1` [PERIFOSINE], the Kd (in [10]; in [1]; in test [2]; at Adenosine kinase; in [3]; in test [4]) was > 30 µM (inactive) each time. In addition, the Kd (in test [5]; at Scaffold protein ILK; in test [11]; in [12]; in [7]; in test [8]) was > 30 µM (inactive) in each case. Besides, the Kd in [13], in [14], in test [15] and in [9] was > 30 µM (inactive) each time.

Turning to `O=C(Cc1ccc(-c2ccc(OCCN3CCOCC3)cc2)cn1)NCc1ccccc1` [TIRBANIBULIN], the Kd (in test [10]; in test [1]; in test [2]; at Adenosine kinase; in test [3]; in test [4]) was > 30 µM (inactive) in each case. The Kd (in test [5]; at Scaffold protein ILK; in test [6]; in test [11]; in test [12]; in test [7]) was > 30 µM (inactive) each time. Further, the Kd in test [13], in test [14], in test [15], in test [16] and in test [9] was > 30 µM (inactive) throughout.

Consider `C[C@@H](N)c1ccc(C(=O)Nc2ccnc3[nH]ccc23)cc1` [Y-39983], for which the Kd in [10] is 0.946 µM (active); in test [1], > 30 µM (inactive); in test [2] it was > 30 µM (inactive); on Adenosine kinase, > 30 µM (inactive); in test [3], > 30 µM (inactive); in [4], > 30 µM (inactive). Moreover, the Kd is > 30 µM (inactive) in test [5]; > 30 µM (inactive) on Scaffold protein ILK; > 30 µM (inactive) in [6]; > 30 µM (inactive) in [11]; > 30 µM (inactive) in test [12]; 0.018 µM (active) in test [7]. Further, the Kd in [13], in [14], in test [15], in test [16] and in test [9] was > 30 µM (inactive) in each case.
